Reference: patent US10517889B2, “Modulators of SMAD7 expression” (Ionis Pharmaceuticals, Inc., priority 2017, dated 2019)
Strand notation (5' to 3'): a small letter for the sugar, then the base; units joined by * are phosphorothioate-linked, units joined directly phosphodiester-linked; [ ] holds rarer units or linkages, { } end groups; capitals alone tell only the bases. k = constrained ethyl (cEt); [5mC] = 5-methylcytosine; d = 2'-deoxy (DNA)

These substances were tested on human SMAD7 mRNA (assay: Antisense inhibition of human SMAD7 mRNA expression in Hep3B cells by 3-10-3 cEt gapmers, 10,000 nM, electroporation (Example 2)). Settings: Hep3B cells, electroporation with 10,000 nM antisense oligonucleotide, approximately 24 hours, RTS5062, percent inhibition of SMAD7 mRNA relative to untreated control cells.
Type: cell-based
Outline: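 Hep3B cells (20,000/well) were electroporated with 10,000 nM 3-10-3 cEt gapmer (16-mer, phosphorothioate, 5-methylcytosines) and harvested after about 24 h. SMAD7 mRNA quantified by RT-qPCR with primer probe set RTS5062, normalized to total RNA by RiboGreen; percent inhibition relative to untreated cells.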

Substance | % Inhibition [%]
799289 (antisense kT*kA*kT*dT*dA*dA*dT*dG*dG*dT*d[5mC]*dT*dG*k[5mC]*kT*k[5mC]) [compound 799289] | 61
799290 (antisense kG*kA*kT*dT*dA*dT*dT*dA*dA*dT*dG*dG*dT*k[5mC]*kT*kG) [compound 799290] | 16
799291 (antisense kG*k[5mC]*kT*dG*dA*dT*dT*dA*dT*dT*dA*dA*dT*kG*kG*kT) [compound 799291] | 0
799292 (antisense kT*kG*kA*dT*dG*d[5mC]*dT*dG*dA*dT*dT*dA*dT*kT*kA*kA) [compound 799292] | 19
799293 (antisense k[5mC]*k[5mC]*kT*dT*dG*dA*dT*dG*d[5mC]*dT*dG*dA*dT*kT*kA*kT) [compound 799293] | 5
799294 (antisense k[5mC]*kG*k[5mC]*dG*dG*d[5mC]*d[5mC]*dT*dT*dG*dA*dT*dG*k[5mC]*kT*kG) [compound 799294] | 13
799295 (antisense kG*kA*k[5mC]*dT*d[5mC]*dG*d[5mC]*dG*dG*d[5mC]*d[5mC]*dT*dT*kG*kA*kT) [compound 799295] | 30
799296 (antisense kG*k[5mC]*kT*dG*dA*d[5mC]*dT*d[5mC]*dG*d[5mC]*dG*dG*d[5mC]*k[5mC]*kT*kT) [compound 799296] | 45
799297 (antisense kA*kA*kA*dG*dG*d[5mC]*dT*dG*dA*d[5mC]*dT*d[5mC]*dG*k[5mC]*kG*kG) [compound 799297] | 62
799298 (antisense k[5mC]*k[5mC]*kA*dA*dA*dA*dG*dG*d[5mC]*dT*dG*dA*d[5mC]*kT*k[5mC]*kG) [compound 799298] | 54
799309 (antisense kG*k[5mC]*kA*d[5mC]*dG*d[5mC]*dT*d[5mC]*dT*dA*dA*dA*d[5mC]*kA*kG*k[5mC]) [compound 799309] | 42
799310 (antisense kT*kA*kA*dG*d[5mC]*dA*d[5mC]*dG*d[5mC]*dT*d[5mC]*dT*dA*kA*kA*k[5mC]) [compound 799310] | 18
799311 (antisense k[5mC]*kT*kT*dT*dA*dA*dG*d[5mC]*dA*d[5mC]*dG*d[5mC]*dT*k[5mC]*kT*kA) [compound 799311] | 27
799313 (antisense kA*kT*k[5mC]*d[5mC]*dA*dT*d[5mC]*dT*dT*dT*dA*dA*dG*k[5mC]*kA*k[5mC]) [compound 799313] | 0
799314 (antisense k[5mC]*kA*kA*dG*dA*dT*d[5mC]*d[5mC]*dA*dT*d[5mC]*dT*dT*kT*kA*kA) [compound 799314] | 0
799315 (antisense k[5mC]*kA*k[5mC]*d[5mC]*dA*dA*dG*dA*dT*d[5mC]*d[5mC]*dA*dT*k[5mC]*kT*kT) [compound 799315] | 15
799316 (antisense kA*kA*kA*d[5mC]*dA*d[5mC]*d[5mC]*dA*dA*dG*dA*dT*d[5mC]*k[5mC]*kA*kT) [compound 799316] | 0
799317 (antisense kT*kA*kA*dA*dA*dA*d[5mC]*dA*d[5mC]*d[5mC]*dA*dA*dG*kA*kT*k[5mC]) [compound 799317] | 0

Same assay, conditions: Hep3B cells, electroporation with 10,000 nM antisense oligonucleotide, approximately 24 hours, SMAD7 mRNA by RT-PCR (RTS5062), relative to untreated control cells

Substance | % Inhibition [%]
799328 (kA*kT*kG*d[5mC]*dA*d[5mC]*dA*d[5mC]*dT*d[5mC]*dT*d[5mC]*d[5mC]*k[5mC]*kA*kG; antisense) [compound 799328] | 0
799329 (kG*kT*kA*dT*dG*d[5mC]*dA*d[5mC]*dA*d[5mC]*dT*d[5mC]*dT*k[5mC]*k[5mC]*k[5mC]; antisense) [compound 799329] | 0
799330 (kG*kG*kT*dA*dT*dG*d[5mC]*dA*d[5mC]*dA*d[5mC]*dT*d[5mC]*kT*k[5mC]*k[5mC]; antisense) [compound 799330] | 45
799331 (kA*kG*kG*dG*dT*dA*dT*dG*d[5mC]*dA*d[5mC]*dA*d[5mC]*kT*k[5mC]*kT; antisense) [compound 799331] | 1
799332 (kG*kG*kG*dA*dA*dT*dG*d[5mC]*d[5mC]*d[5mC]*dT*dT*dT*kG*kA*kG; antisense) [compound 799332] | 45
799333 (kA*kG*kA*dA*dA*dA*d[5mC]*d[5mC]*dT*dG*dG*dA*dA*kG*kG*kG; antisense) [compound 799333] | 24
799334 (k[5mC]*k[5mC]*kG*dT*dA*dG*dA*d[5mC]*d[5mC]*d[5mC]*d[5mC]*dT*dT*k[5mC]*kG*kG; antisense) [compound 799334] | 21
799335 (kT*kG*k[5mC]*dA*dG*dG*dA*dG*d[5mC]*dA*dG*dT*dG*k[5mC]*k[5mC]*k[5mC]; antisense) [compound 799335] | 31
799336 (kA*k[5mC]*kT*dG*d[5mC]*dA*dG*dG*dA*dG*d[5mC]*dA*dG*kT*kG*k[5mC]; antisense) [compound 799336] | 25
799337 (kG*kT*k[5mC]*dT*dT*dT*d[5mC]*d[5mC]*dG*dG*dG*dT*dG*k[5mC]*kG*kG; antisense) [compound 799337] | 30

Same assay, conditions: Hep3B cells, electroporation with 10,000 nM antisense oligonucleotide, approximately 24 hours, primer probe set RTS5062, relative to untreated control cells

Substance | % inhibition of SMAD7 mRNA expression [%]
799323 (antisense k[5mC]*k[5mC]*kA*dG*dG*dA*dG*dG*dG*dT*dA*dT*dG*k[5mC]*kA*k[5mC]) [compound 799323] | 60
799324 (antisense kT*k[5mC]*k[5mC]*d[5mC]*dA*dG*dG*dA*dG*dG*dG*dT*dA*kT*kG*k[5mC]) [compound 799324] | 6
799325 (antisense kT*k[5mC]*kT*d[5mC]*d[5mC]*d[5mC]*dA*dG*dG*dA*dG*dG*dG*kT*kA*kT) [compound 799325] | 2
799326 (kA*k[5mC]*kA*d[5mC]*dT*d[5mC]*dT*d[5mC]*d[5mC]*d[5mC]*dA*dG*dG*kA*kG*kG; antisense) [compound 799326] | 31
799327 (kG*k[5mC]*kA*d[5mC]*dA*d[5mC]*dT*d[5mC]*dT*d[5mC]*d[5mC]*d[5mC]*dA*kG*kG*kA; antisense) [compound 799327] | 52
799338 (kT*kT*kA*dT*dA*dG*d[5mC]*dA*d[5mC]*dG*d[5mC]*d[5mC]*dT*k[5mC]*kT*k[5mC]; antisense) [compound 799338] | 0
799339 (kG*kA*kT*dA*d[5mC]*d[5mC]*d[5mC]*dA*dG*dT*dT*d[5mC]*dG*kG*k[5mC]*k[5mC]; antisense) [compound 799339] | 18
799340 (kA*kG*kA*dT*dA*d[5mC]*d[5mC]*d[5mC]*dA*dG*dT*dT*d[5mC]*kG*kG*k[5mC]; antisense) [compound 799340] | 0
799341 (kG*kA*kA*dG*dG*dA*dA*dA*dA*dA*dG*dT*dA*kG*kG*kG; antisense) [compound 799341] | 8
799342 (k[5mC]*kT*kT*dA*dT*d[5mC]*dT*dG*dT*dG*d[5mC]*dG*dG*kA*kA*kG; antisense) [compound 799342] | 44
799343 (kA*k[5mC]*kT*dA*dA*dT*d[5mC]*dT*dA*d[5mC]*dA*dG*dA*k[5mC]*kT*kT; antisense) [compound 799343] | 53

Same assay, conditions: Hep3B cells, electroporation, 10,000 nM antisense oligonucleotide, approximately 24 hours, RTS5062, relative to untreated control cells

Substance | % inhibition of SMAD7 mRNA expression [%]
799299 (antisense kA*kT*kT*d[5mC]*d[5mC]*dA*dA*dA*dA*dG*dG*d[5mC]*dT*kG*kA*k[5mC]) [compound 799299] | 42
799300 (antisense k[5mC]*kA*k[5mC]*dA*dT*dT*d[5mC]*d[5mC]*dA*dA*dA*dA*dG*kG*k[5mC]*kT) [compound 799300] | 28
799301 (antisense k[5mC]*k[5mC]*kA*d[5mC]*dA*d[5mC]*dA*dT*dT*d[5mC]*d[5mC]*dA*dA*kA*kA*kG) [compound 799301] | 37
799302 (antisense kA*kA*kA*d[5mC]*d[5mC]*dA*d[5mC]*dA*d[5mC]*dA*dT*dT*d[5mC]*k[5mC]*kA*kA) [compound 799302] | 39
799303 (antisense kG*kA*k[5mC]*dA*dA*dA*d[5mC]*d[5mC]*dA*d[5mC]*dA*d[5mC]*dA*kT*kT*k[5mC]) [compound 799303] | 73
799304 (antisense kG*kA*kA*dA*dG*dA*d[5mC]*dA*dA*dA*d[5mC]*d[5mC]*dA*k[5mC]*kA*k[5mC]) [compound 799304] | 54
799305 (antisense k[5mC]*kA*kT*dG*dA*dA*dA*dG*dA*d[5mC]*dA*dA*dA*k[5mC]*k[5mC]*kA) [compound 799305] | 0
799306 (antisense kA*kA*kA*d[5mC]*dA*dG*d[5mC]*dA*dT*dG*dA*dA*dA*kG*kA*k[5mC]) [compound 799306] | 27
799307 (antisense kT*k[5mC]*kT*dA*dA*dA*d[5mC]*dA*dG*d[5mC]*dA*dT*dG*kA*kA*kA) [compound 799307] | 10
799308 (antisense k[5mC]*kG*k[5mC]*dT*d[5mC]*dT*dA*dA*dA*d[5mC]*dA*dG*d[5mC]*kA*kT*kG) [compound 799308] | 47
799319 (antisense kT*kG*k[5mC]*dT*dG*dT*dG*dG*dA*dT*dT*dT*dG*kA*kA*kA) [compound 799319] | 0
799320 (antisense kG*kT*k[5mC]*dT*dG*d[5mC]*dT*dG*dT*dG*dG*dA*dT*kT*kT*kG) [compound 799320] | 0
